Experimental data as given in ChEMBL document CHEMBL1155268, “Synthesis of amyloid beta peptide 1-42 (E22Delta) click peptide: pH-triggered in situ production of its native form” (Bioorg Med Chem, 2009).
Values after ≈ are worked out from the molar mass of the structure shown.

Assay: Solubility in water by HPLC
Assay type: physicochemical

solubility: 1500 µg/mL (≈ 342 µM)
Structure (SMILES): CC[C@H](C)[C@H](NC(=O)[C@H](C)NC(=O)CNC(=O)[C@H](CCCCN)NC(=O)[C@H](CC(N)=O)NC(=O)[C@H](CO)NC(=O)CNC(=O)[C@@H](NC(=O)[C@H](CC(=O)O)NC(=O)[C@H](C)NC(=O)[C@H](Cc1ccccc1)NC(=O)[C@H](Cc1ccccc1)NC(=O)[C@@H](NC(=O)[C@H](CC(C)C)NC(=O)[C@H](CCCCN)NC(=O)[C@H](CCC(N)=O)NC(=O)[C@H](Cc1cnc[nH]1)NC(=O)[C@H](Cc1cnc[nH]1)NC(=O)[C@@H](NC(=O)[C@H](CCC(=O)O)NC(=O)[C@H](Cc1ccc(O)cc1)NC(=O)CNC(=O)[C@H](CO)NC(=O)[C@H](CC(=O)O)NC(=O)[C@H](Cc1cnc[nH]1)NC(=O)[C@H](CCCNC(=N)N)NC(=O)[C@H](Cc1ccccc1)NC(=O)[C@H](CCC(=O)O)NC(=O)[C@H](C)NC(=O)[C@@H](N)CC(=O)O)C(C)C)C(C)C)C(C)C)C(=O)N[C@H](C(=O)NCC(=O)N[C@@H](CC(C)C)C(=O)N[C@@H](CCSC)C(=O)N[C@H](C(=O)NCC(=O)NCC(=O)N[C@H](C(=O)N[C@H](C(=O)N[C@H](C(=O)N[C@@H](C)C(=O)O)[C@@H](C)CC)C(C)C)C(C)C)C(C)C)[C@@H](C)CC
